Where “and” joins values, the source holds several entries; their conditions need not be identical. Identical values can stand only once. Inconclusive results and toxic doses are left out. The calls were made as follows: active = survival T/C of 150% or more; inactive = T/C below 125% in these data.
System: P388 leukemia ip, CD2F1 mice, survival T/C
Assay: NCI In Vivo Anticancer Drug Screen. Data for tumor model P388 Leukemia (intraperitoneal) in CD2F1 (CDF1) mice
Details: endpoint: median survival time, higher = longer survival
Outline: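 Mice carrying the transplanted tumor received test compound or vehicle. Survival was recorded in each group, and the value is the treated-group measurement divided by that of the vehicle-treated control group.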

[1] = dose: 50.0 mg/kg/injection, schedule: Q01DX005 (ip), vehicle: saline with Tween-80
[2] = dose: 100.0 mg/kg/injection, schedule: Q01DX005 (ip), vehicle: saline with Tween-80
[3] = dose: 50.0 mg/kg/injection, schedule: Q01DX009 (ip), vehicle: saline
[4] = dose: 100.0 mg/kg/injection, schedule: Q01DX009 (ip), vehicle: saline
[5] = dose: 100.0 mg/kg/injection, schedule: Q04DX003 (ip), vehicle: saline
[6] = dose: 50.0 mg/kg/injection, schedule: Q01DX005 (ip), vehicle: saline
[7] = dose: 100.0 mg/kg/injection, schedule: Q01DX005 (ip), vehicle: saline
[8] = dose: 200.0 mg/kg/injection, schedule: Q01DX005 (ip), vehicle: saline
[9] = dose: 100.0 mg/kg/injection, schedule: Q04DX002 (ip), vehicle: saline with Tween-80
[10] = dose: 12.5 mg/kg/injection, schedule: Q01DX009 (ip), vehicle: saline
[11] = dose: 25.0 mg/kg/injection, schedule: Q01DX009 (ip), vehicle: saline
[12] = dose: 50.0 mg/kg/injection, schedule: Q01DX009 (ip), vehicle: saline with Tween-80
[13] = dose: 100.0 mg/kg/injection, schedule: Q01DX009 (ip), vehicle: saline with Tween-80
[14] = dose: 200.0 mg/kg/injection, schedule: Q01DX009 (ip), vehicle: saline with Tween-80
[15] = dose: 50.0 mg/kg/injection, schedule: Q01DX005 (ip), vehicle: Klucel (hydroxypropylcellulose) (HPC)
[16] = dose: 200.0 mg/kg/injection, schedule: Q01DX005 (ip), vehicle: saline with Tween-80
[17] = dose: 50.0 mg/kg/injection, schedule: Q01DX009 (ip), vehicle: Klucel (hydroxypropylcellulose) (HPC)
[18] = dose: 100.0 mg/kg/injection, schedule: Q01DX009 (ip), vehicle: Klucel (hydroxypropylcellulose) (HPC)
[19] = dose: 6.25 mg/kg/injection, schedule: Q01DX009 (ip), vehicle: saline with Tween-80
[20] = dose: 12.5 mg/kg/injection, schedule: Q01DX009 (ip), vehicle: saline with Tween-80

Measured: T/C

Cc1cc(=O)[nH]c2c(C)c(N)ccc12
inactive: dose: 25.0 mg/kg/injection, schedule: Q01DX005 (ip), vehicle: saline with Tween-80 95 % of control | [1] 104 % of control | [2] 95 % of control

Cc1cc(O)c2c(O)c(-c3ccc4cc(C)cc(O)c4c3O)ccc2c1
inactive: [3] 104 % of control | [4] 112 % of control

O=C(O)c1c[nH]c2cc(OCc3ccc(F)cc3)ccc2c1=O
inactive: [5] 88 % of control | dose: 200.0 mg/kg/injection, schedule: Q04DX003 (ip), vehicle: saline 93 % of control | dose: 400.0 mg/kg/injection, schedule: Q04DX003 (ip), vehicle: saline 90 % of control

C[C@H]1C(=O)N(C)C(=O)[C@@H]1N
inactive: [6] 97 % of control | [7] 97 % of control | [8] 95 % of control

CCCn1c2ccccc2c2c(C)c3cnccc3c(C)c21
inactive: dose: 12.5 mg/kg/injection, schedule: Q04DX002 (ip), vehicle: saline with Tween-80 100 % of control | dose: 25.0 mg/kg/injection, schedule: Q04DX002 (ip), vehicle: saline with Tween-80 97 % of control | dose: 50.0 mg/kg/injection, schedule: Q04DX002 (ip), vehicle: saline with Tween-80 94 % of control | [9] 105 % of control

CCCOc1cncc(C)n1
inactive: [10] 95 % of control | [11] 87 % of control | [3] 101 % of control and 97 % of control

Cc1nn(C(=O)c2c(-c3ccccc3)noc2C)c(C)c1N=Nc1cc(C(F)(F)F)cc(C(F)(F)F)c1
inactive: [12] 87 % of control | [13] 87 % of control | [14] 97 % of control

COc1cc(/C=C/C(=O)O)cc(OC)c1
inactive: [15] 103 % of control | dose: 100.0 mg/kg/injection, schedule: Q01DX005 (ip), vehicle: Klucel (hydroxypropylcellulose) (HPC) 103 % of control | dose: 200.0 mg/kg/injection, schedule: Q01DX005 (ip), vehicle: Klucel (hydroxypropylcellulose) (HPC) 109 % of control

COc1cc([C@@H]2c3cc4c(c(O)c3C[C@H]3COC(=O)[C@@H]32)OCO4)cc(OC)c1O
active: dose: 1.0 mg/kg/injection, schedule: Q01DX009 (ip), vehicle: saline 150 % of control
inactive: dose: 0.25 mg/kg/injection, schedule: Q01DX009 (ip), vehicle: suspension in saline 121 % of control | dose: 1.0 mg/kg/injection, schedule: Q01DX009 (ip), vehicle: suspension in saline 99 % of control

COC(=O)C[CH2][Sn]([Cl])([Cl])[Cl]
inactive: dose: 25.0 mg/kg/injection, schedule: Q04DX003 (ip), vehicle: saline 98 % of control | dose: 50.0 mg/kg/injection, schedule: Q04DX003 (ip), vehicle: saline 100 % of control | [5] 100 % of control and 96 % of control

C=C(C)C(=O)O[C@H]1C[C@@]2(C)OC(=CC2=O)/C(CO)=C\[C@H]2OC(=O)C(=C)[C@H]12
inactive: dose: 1.56 mg/kg/injection, schedule: Q01DX009 (ip), vehicle: Klucel (hydroxypropylcellulose) (HPC) 108 % of control | dose: 3.13 mg/kg/injection, schedule: Q01DX009 (ip), vehicle: Klucel (hydroxypropylcellulose) (HPC) 106 % of control | dose: 6.25 mg/kg/injection, schedule: Q01DX009 (ip), vehicle: Klucel (hydroxypropylcellulose) (HPC) 117 % of control

CC12CCc3ccccc3C1=Nc1ccccc12 (stereo not given)
inactive: [1] 103 % of control | [2] 104 % of control | [16] 91 % of control

Cc1[nH]c2c(-c3ccccc3)c3cc(Cl)ccc3nc2c1C(=O)O
inactive: dose: 25.0 mg/kg/injection, schedule: Q01DX009 (ip), vehicle: Klucel (hydroxypropylcellulose) (HPC) 92 % of control | [17] 89 % of control | [18] 86 % of control

NC1=NC(c2c3ccccc3cc3ccccc23)N=C(Nc2cccc(Cl)c2)N1 (stereo not given)
inactive: [19] 107 % of control | [20] 114 % of control | [12] 95 % of control

O=C1OC2C(O1)C1(c3ccccc3)C(=O)C2(c2ccccc2)C(c2ccccc2)=C1c1ccccc1 (stereo not given)
inactive: [19] 107 % of control and 96 % of control | [20] 106 % of control and 94 % of control | dose: 25.0 mg/kg/injection, schedule: Q01DX009 (ip), vehicle: saline with Tween-80 101 % of control and 96 % of control | [12] 98 % of control and 105 % of control | [13] 89 % of control

COc1c(OP2(=S)OCC(C)(C)CO2)cnn(C2CCCCC2)c1=O
inactive: [1] 89 % of control | [2] 88 % of control

COc1ccc2cc3n(c(=Nc4ccccc4)c2c1OC)CCc1cc2c(cc1-3)OCO2
inactive: dose: 0.63 mg/kg/injection, schedule: Q01DX009 (ip), vehicle: water 97 % of control | dose: 1.25 mg/kg/injection, schedule: Q01DX009 (ip), vehicle: water 93 % of control | dose: 2.5 mg/kg/injection, schedule: Q01DX009 (ip), vehicle: water 101 % of control | dose: 5.0 mg/kg/injection, schedule: Q01DX009 (ip), vehicle: water 124 % of control | dose: 10.0 mg/kg/injection, schedule: Q01DX009 (ip), vehicle: water 99 % of control | dose: 20.0 mg/kg/injection, schedule: Q01DX009 (ip), vehicle: water 101 % of control

CCN(CC)c1c(C)nnc2c3cccnc3nn12
inactive: dose: 25.0 mg/kg/injection, schedule: Q01DX001 (ip), vehicle: saline with Tween-80 100 % of control | dose: 50.0 mg/kg/injection, schedule: Q01DX001 (ip), vehicle: saline with Tween-80 103 % of control | dose: 100.0 mg/kg/injection, schedule: Q01DX001 (ip), vehicle: saline with Tween-80 106 % of control and 97 % of control

O=c1[nH]c2ccc(Cl)cc2c2ccccc12
inactive: [17] 101 % of control | [18] 100 % of control | dose: 200.0 mg/kg/injection, schedule: Q01DX009 (ip), vehicle: Klucel (hydroxypropylcellulose) (HPC) 105 % of control

CCOC(=O)N(O)c1ccc(C(N)=O)cc1
inactive: [12] 100 % of control | [13] 97 % of control | [14] 108 % of control

CC(CCc1ccccc1)C(=O)Nc1ccccc1 (stereo not given)
inactive: [9] 99 % of control | dose: 200.0 mg/kg/injection, schedule: Q04DX002 (ip), vehicle: saline with Tween-80 96 % of control | dose: 400.0 mg/kg/injection, schedule: Q04DX002 (ip), vehicle: saline with Tween-80 95 % of control

CC[As](CC)SC1CC(OC(=O)c2ccccc2)C(OC(=O)c2ccccc2)C(COC(=O)c2ccccc2)O1 (stereo not given)
inactive: [12] 100 % of control | [13] 105 % of control

Cc1cc2nc(N)sc2cc1C
inactive: [10] 98 % of control | [11] 100 % of control | [3] 102 % of control | [4] 102 % of control

c1cc2ccc1CCc1ccc(cc1)CC2
inactive: dose: 100.0 mg/kg/injection, schedule: Q01DX001 (ip), vehicle: saline sonified 90 % of control | dose: 200.0 mg/kg/injection, schedule: Q01DX001 (ip), vehicle: saline sonified 100 % of control | dose: 400.0 mg/kg/injection, schedule: Q01DX001 (ip), vehicle: saline sonified 100 % of control

CC(NC(=O)OC(C)(C)C)C(=O)ON1C(=O)CCC1=O (stereo not given)
inactive: [1] 108 % of control | [2] 114 % of control | [16] 104 % of control

CN1C2CCCC1CC1(C2)NC(=O)NC1=O (stereo not given)
inactive: dose: 50.0 mg/kg/injection, schedule: Q01DX009 (ip), vehicle: water 99 % of control | dose: 100.0 mg/kg/injection, schedule: Q01DX009 (ip), vehicle: water 100 % of control

COc1c(OC)c(C2(O)C(=O)N(C)c3ccccc32)c2c(c1C1(O)C(=O)N(C)c3ccccc31)OCO2 (stereo not given)
inactive: dose: 60.0 mg/kg/injection, schedule: Q01DX005 (ip), vehicle: saline with Tween-80 95 % of control | dose: 120.0 mg/kg/injection, schedule: Q01DX005 (ip), vehicle: saline with Tween-80 90 % of control | dose: 240.0 mg/kg/injection, schedule: Q01DX005 (ip), vehicle: saline with Tween-80 89 % of control

OCCN(CCO)N(CCO)CCO
inactive: [6] 96 % of control | [7] 97 % of control | [8] 97 % of control

Cc1ccc(C2=CSC3=NCCN23)cc1Cl
inactive: dose: 12.5 mg/kg/injection, schedule: Q01DX005 (ip), vehicle: Klucel (hydroxypropylcellulose) (HPC) 99 % of control | dose: 25.0 mg/kg/injection, schedule: Q01DX005 (ip), vehicle: Klucel (hydroxypropylcellulose) (HPC) 101 % of control | [15] 107 % of control
